PubChem BioAssay (NCI)
“And” between values parts separate entries of the source, which are not always exact repeats. Identical values can stand only once.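 Cells were grown in 96-well plates and exposed to each compound for 48 hours at five concentrations; endpoints were interpolated linearly between bracketing concentrations, or set to the highest concentration if not reached. GI50 is the concentration that inhibits growth by half. Definition used: TGI = concentration required for complete inhibition of growth.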 The source made the active and inactive calls. Rule as the data show it: active = GI50 below about 0.43 µM; inactive = the rest.

Experiments:
Experiment in all cases: NCI tumour cell line growth inhibition, 48 h
SN12C renal = system: SN12C renal
RPMI-8226 leukemia = system: RPMI-8226 leukemia
SK-MEL-5 melanoma = system: SK-MEL-5 melanoma
KM20L2 colon = system: KM20L2 colon
SK-OV-3 ovarian = system: SK-OV-3 ovarian
LOX IMVI melanoma = system: LOX IMVI melanoma
TK-10 renal = system: TK-10 renal
HT29 colon = system: HT29 colon
MCF7 breast = system: MCF7 breast
786-0 renal = system: 786-0 renal
HCT-15 colon = system: HCT-15 colon
UACC-62 melanoma = system: UACC-62 melanoma
OVCAR-8 ovarian = system: OVCAR-8 ovarian
UO-31 renal = system: UO-31 renal
A549 NSCLC = system: A549 NSCLC
HCT-116 colon = system: HCT-116 colon
HL-60(TB) leukemia = system: HL-60(TB) leukemia
SNB-78 CNS = system: SNB-78 CNS
NCI-H226 lung = system: NCI-H226 lung
T-47D breast = system: T-47D breast
EKVX NSCLC = system: EKVX NSCLC
OVCAR-3 ovarian = system: OVCAR-3 ovarian
SF-295 CNS = system: SF-295 CNS
DMS 114 small cell lung = system: DMS 114 small cell lung
MOLT-4 leukemia = system: MOLT-4 leukemia
RXF 393 renal = system: RXF 393 renal
SW-620 colon = system: SW-620 colon
NCI-H522 lung = system: NCI-H522 lung
BT-549 breast = system: BT-549 breast
OVCAR-5 ovarian = system: OVCAR-5 ovarian
SR leukemia = system: SR leukemia
HOP-62 NSCLC = system: HOP-62 NSCLC
DU-145 prostate = system: DU-145 prostate
NCI-H460 lung = system: NCI-H460 lung
PC-3 prostate = system: PC-3 prostate
MDA-MB-231 breast = system: MDA-MB-231 breast

COc1cccc2c1C(=O)c1c(O)c3c(c(O)c1C2=O)C[C@@](O)(C(=O)CO)C[C@@H]3OC1CC(N)C(O)C(C)O1 (some centres undefined)
outcome (SN12C renal): inactive
outcome (RPMI-8226 leukemia): inactive
TGI (SK-MEL-5 melanoma): 340 nM [middle of 5 runs]
outcome (SK-MEL-5 melanoma): inactive
TGI (KM20L2 colon): 15.9 µM
outcome (SK-OV-3 ovarian): inactive
GI50 (LOX IMVI melanoma): 0.0392 µM and 0.0917 µM
outcome (TK-10 renal): inactive
outcome (HT29 colon): inactive
outcome (MCF7 breast): inactive
outcome (786-0 renal): inactive
GI50 (HCT-15 colon): 3.88 µM
outcome (HCT-15 colon): inactive
GI50 (UACC-62 melanoma): 0.149 µM
outcome (UACC-62 melanoma): inactive
outcome (OVCAR-8 ovarian): inactive
GI50 (UO-31 renal): 1.85 µM
outcome (UO-31 renal): inactive
GI50 (A549 NSCLC): 0.109 µM and 0.0609 µM and 0.106 µM
outcome (A549 NSCLC): inactive
outcome (HCT-116 colon): inactive
outcome (HL-60(TB) leukemia): inactive
TGI (SNB-78 CNS): 8.73 µM
outcome (NCI-H226 lung): inactive
outcome (T-47D breast): inactive
outcome (EKVX NSCLC): inactive
outcome (OVCAR-3 ovarian): inactive
GI50 (SF-295 CNS): 0.21 µM
outcome (SF-295 CNS): inactive
TGI (DMS 114 small cell lung): 0.591 µM
GI50 (MOLT-4 leukemia): < 0.0221 µM
outcome (MOLT-4 leukemia): inactive
GI50 (RXF 393 renal): 0.402 µM
TGI (RXF 393 renal): 1.04 µM [middle of 4 runs]
outcome (RXF 393 renal): inactive
outcome (SW-620 colon): inactive
GI50 (NCI-H522 lung): 0.193 µM
outcome (NCI-H522 lung): inactive
outcome (BT-549 breast): inactive
TGI (OVCAR-5 ovarian): 5.37 µM [middle of 4 runs]
outcome (OVCAR-5 ovarian): inactive
outcome (SR leukemia): inactive
GI50 (HOP-62 NSCLC): 0.145 µM
outcome (HOP-62 NSCLC): inactive
GI50 (DU-145 prostate): 169 nM [middle of 4 runs]
outcome (DU-145 prostate): inactive
outcome (NCI-H460 lung): inactive
outcome (PC-3 prostate): inactive
GI50 (MDA-MB-231 breast): 0.949 µM
